pIC50: −log10 of the molar value.

For one experiment, the target named is T1, P2Y12 receptor (Homo sapiens, UniProt Q9H244).
T1 construct: expressed in transfected cells; host or cells: CHO cells (membranes)
T1 sequence (Q9H244 whole entry): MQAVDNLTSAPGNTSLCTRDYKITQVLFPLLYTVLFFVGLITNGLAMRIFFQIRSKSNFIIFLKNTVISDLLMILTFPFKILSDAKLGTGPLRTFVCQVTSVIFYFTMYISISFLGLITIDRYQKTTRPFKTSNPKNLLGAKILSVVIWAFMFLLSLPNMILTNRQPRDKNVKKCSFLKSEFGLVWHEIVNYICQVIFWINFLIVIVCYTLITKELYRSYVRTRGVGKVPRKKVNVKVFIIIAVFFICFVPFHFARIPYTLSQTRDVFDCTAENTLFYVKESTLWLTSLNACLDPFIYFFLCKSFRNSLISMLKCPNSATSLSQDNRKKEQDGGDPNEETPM
The experiment can be described thus: Functional inhibition of 2-Me-S-ADP induced P2Y12 signalling (35S-GTPγS binding, membranes from P2Y12 transfected CHO-cells). In kind it is biochemical. As to conditions: EC80 agonist, CHO-cell membranes, read-out: IC50. As to the method: Functional inhibition of-the P2Y12 receptor can be measured by in vitro assays using cell membranes from P2Y12 transfected CHO-cells, the methodology is indicated below. […] The reaction was allowed to proceed at 30° C. for 45 min. Samples were then transferred on to GF/B filters using a cell harvester and washed with wash buffer (50 mM Tris (pH 7.4), 5 mM MgCl2, 50 mM NaCl). Filters were then covered with scintilant and counted for the amount of ^35S-GTPγS retained by the filter. Maximum activity was that determined in the presence of the agonist and minimum activity in the absence of the agonist following subtraction of the value determined for non-specific activity. The effect of compounds at various concentrations was plotted according to the equation […]))) and IC50 estimated where A is the bottom plateau of the curve i.e. the final minimum y value B is the top of the plateau of the curve i.e. the final maximum y value C is the x value at the middle of the curve. […] Y is the original known y values. […] The reaction was allowed to proceed at 30° C. for 45 min. Samples were then transferred on to GF/B filters using a cell harvester and washed with wash buffer (50 mM Tris (pH 7.4), 5 mM MgCl2, 50 mM NaCl). Filters were then covered with scintilant and counted for the amount of ^35S-GTPγS retained by the filter. Maximum activity was that determined in the presence of the agonist and minimum activity in the absence of the agonist following subtraction of the value determined for non-specific activity. The effect of compounds at various concentrations was plotted according to the equation […]))) and IC50 estimated where A is the bottom plateau of the curve i.e. the final minimum y value B is the top of the plateau of the curve i.e. the final maximum y value C is the x value at the middle of the curve. […] Y is the original known y values.
Background: Binding of GTPγS marks nucleotide exchange on a G protein.
The pIC50 is the IC50 on a negative log10 scale, so that one unit is a factor of ten. Consider `CCOC(=O)c1cc(C#N)c(N2CCC(C(=O)NS(=O)(=O)Cc3ccccc3)C(C)C2)nc1C` (stereo not shown) [Example 5, Ethyl 6-{4-[(benzylsulfonyl)carbamoyl]-3-methylpiperidin-1-yl}-5-cyano-2-methylnicotinate], for which the negative-log IC50 (pIC50) was 7.15.

Staying with this experiment, now noted: EC80 agonist, CHO-cell membranes, value given in each example, read-out: GTPγS(IC50 μM).
A word on the IC50: it is the concentration needed to halve the response being measured. `CCOC(=O)c1cc(C#N)c(N2CCC(CC(=O)NS(=O)(=O)Cc3ccccc3)C2)nc1C` (stereo not shown) [Example 1, Ethyl 6-(3-{2-[(benzylsulfonyl)amino]-2-oxoethyl}pyrrolidin-1-yl)-5-cyano-2-methylnicotinate]: the IC50 worked out at 0.143 µM. Still for that read-out and setting: as for `CCOC(=O)c1cc(C#N)c(N2CCC(CC(=O)NS(=O)(=O)CCc3ccccc3)C2)nc1C` (stereo not shown) [Example 2, Ethyl 5-cyano-2-methyl-6-[3-(2-oxo-2-{[(2-phenylethyl)sulfonyl]amino}ethyl)pyrrolidin-1-yl]nicotinate], the figure is 0.12 µM; as for `Cc1nc(N2CCC(C(=O)NS(=O)(=O)Cc3ccc(F)cc3)CC2)c(C#N)cc1C(=O)OCC(F)(F)F` [Example 3, 2,2,2-Trifluoroethyl 5-cyano-6-(4-{[(4-fluorobenzyl)sulfonyl]carbamoyl}piperidin-1-yl)-2-methylnicotinate], 0.024 µM. On to `CCOC(=O)c1cc(C#N)c(N2CC(C(=O)NS(=O)(=O)Cc3cc(C)ccc3F)C2)nc1C` [Example 4, Ethyl 5-cyano-6-(3-{[(2-fluoro-5-methylbenzyl)sulfonyl]carbamoyl}azetidin-1-yl)-2-methylnicotinate], for which the IC50 stood at 0.018 µM.

For the molecule `CCOC(=O)c1cc(C#N)c(N2CCC(C(=O)NS(=O)(=O)Cc3ccccc3)C(C)C2)nc1C` (stereo not shown) [Example 5, Ethyl 6-{4-[(benzylsulfonyl)carbamoyl]-3-methylpiperidin-1-yl}-5-cyano-2-methylnicotinate], the IC50 was 0.067 µM. Same read-out and setting: in the case of `CCOC(=O)c1cc(C#N)c(N2CCC(C(=O)NS(=O)(=O)Cc3ccccc3)CC2)nc1NC` [Example 6, Ethyl 6-{4-[(benzylsulfonyl)carbamoyl]piperidin-1-yl}-5-cyano-2-(methylamino)nicotinate] it was 0.044 µM; in that of `CCOC(=O)c1cc(C#N)c(N2CCC(C(=O)NS(=O)(=O)Cc3cc(C)ccc3F)CC2)nc1C` [Example 7, Ethyl 5-cyano-6-(4-{[(2-fluoro-5-methylbenzyl)sulfonyl]carbamoyl}piperidin-1-yl)-2-methylnicotinate], 0.035 µM. Turning to `CCOC(=O)c1cc(C#N)c(N2CCC(C(=O)NS(=O)(=O)Cc3cccc(OC)c3)CC2)nc1C` [Example 8, Ethyl 5-cyano-6-(4-{[(3-methoxybenzyl)sulfonyl]carbamoyl}piperidin-1-yl)-2-methylnicotinate], the IC50 is 0.074 µM. With `CCOC(=O)c1cc(C#N)c(N2CC(C(=O)NS(=O)(=O)Cc3c(F)cccc3F)C2)nc1CC` [Example 9, Ethyl 5-cyano-6-(3-{[(2,6-difluorobenzyl)sulfonyl]carbamoyl}azetidin-1-yl)-2-ethylnicotinate], the IC50 came out at 0.046 µM.

As for `CCOC(=O)c1cc(C#N)c(N2CC(C(=O)NS(=O)(=O)Cc3ccc(F)c(C)c3)C2)nc1CC` [Example 10, Ethyl 5-cyano-2-ethyl-6-(3-{[(4-fluoro-3-methylbenzyl)sulfonyl]carbamoyl}azetidin-1-yl)nicotinate], the IC50 is 0.064 µM. Same read-out and setting: as for `CCOC(=O)c1cc(C#N)c(N2CC(C(=O)NS(=O)(=O)Cc3ccc(F)cc3Cl)C2)nc1CC` [Example 11, Ethyl 6-(3-{[(2-chloro-4-fluorobenzyl)sulfonyl]carbamoyl}azetidin-1-yl)-5-cyano-2-ethylnicotinate], the figure is 0.036 µM; as for `CCOC(=O)c1cc(C#N)c(N2CCC(C(=O)NS(=O)(=O)Cc3cc(F)ccc3C)CC2)nc1C` [Example 12, Ethyl 5-cyano-6-(4-{[(5-fluoro-2-methylbenzyl)sulfonyl]carbamoyl}piperidin-1-yl)-2-methylnicotinate], 0.49 µM; as for `CCOC(=O)c1cc(C#N)c(N2CCC(C(=O)NS(=O)(=O)Cc3c(F)ccc(F)c3F)CC2)nc1C` [Example 13, ethyl 5-cyano-2-methyl-6-(4-{[(2,3,6-trifluorobenzyl)sulfonyl]carbamoyl}piperidin-1-yl)nicotinate], 0.071 µM. In the case of `CCOC(=O)c1cc(C#N)c(N2CCC(C(=O)NS(=O)(=O)Cc3ccc(F)cc3F)CC2)nc1C` [Example 14, Ethyl 5-cyano-6-(4-{[(2,4-difluorobenzyl)sulfonyl]carbamoyl}piperidin-1-yl)-2-methylnicotinate], the IC50 is 0.016 µM. `CCOC(=O)c1cc(C#N)c(N2CCC(C(=O)NS(=O)(=O)Cc3c(F)cccc3F)CC2)nc1CC` [Example 15, Ethyl 5-cyano-6-(4-{[(2,6-difluorobenzyl)sulfonyl]carbamoyl}piperidin-1-yl)-2-ethylnicotinate]: the IC50 is 0.048 µM. On the same count and under the same terms, as for `CCOC(=O)c1cc(C#N)c(N2CCC(C(=O)NS(=O)(=O)Cc3ccc(F)cc3Cl)CC2)nc1CC` [Example 16, Ethyl 6-(4-{[(2-chloro-4-fluorobenzyl)sulfonyl]carbamoyl}piperidin-1-yl)-5-cyano-2-ethylnicotinate], the figure is 0.211 µM. Turning to `CCOC(=O)c1cc(C#N)c(N2CCC(C(=O)NS(=O)(=O)Cc3c(F)ccc(F)c3F)CC2)nc1CC` [Example 17, Ethyl 5-cyano-2-ethyl-6-(4-{[(2,3,6-trifluorobenzyl)sulfonyl]carbamoyl}piperidin-1-yl)nicotinate], the half-maximal inhibitory concentration (IC50) turned out to be 0.097 µM. Take `CCOC(=O)c1cc(C#N)c(N2CCC(C(=O)NS(=O)(=O)Cc3ccc(F)cc3F)CC2)nc1CC` [Example 18, Ethyl 5-cyano-6-(4-{[(2,4-difluorobenzyl)sulfonyl]carbamoyl}piperidin-1-yl)-2-ethylnicotinate]: the IC50 was found to be 0.02 µM.

For `CCOC(=O)c1cc(C#N)c(N2CC(C(=O)NS(=O)(=O)Cc3ccc(F)cc3F)C2)nc1C` [Example 20, Ethyl 5-cyano-6-(3-{[(2,4-difluorobenzyl)sulfonyl]carbamoyl}azetidin-1-yl)-2-methylnicotinate], the IC50 was found to be 0.035 µM. Consider `CCOC(=O)c1cc(C#N)c(N2CC(C(=O)NS(=O)(=O)Cc3ccc(F)cc3F)C2)nc1CC` [Example 21, Ethyl 5-cyano-6-(3-{[(2,4-difluorobenzyl)sulfonyl]carbamoyl}azetidin-1-yl)-2-ethylnicotinate], for which the IC50 stood at 0.03 µM. For the molecule `CCOC(=O)c1cc(C#N)c(N2CC(C(=O)NS(=O)(=O)Cc3ccc(F)cc3)C2)nc1CC` [Example 22, Ethyl 5-cyano-2-ethyl-6-(3-{[(4-fluorobenzyl)sulfonyl]carbamoyl}azetidin-1-yl)nicotinate], the IC50 turned out to be 0.041 µM. Regarding `CCOC(=O)c1cc(C#N)c(N2CC(C(=O)NS(=O)(=O)Cc3ccc(Cl)cc3)C2)nc1CC` [Example 23, Ethyl 6-(3-{[(4-chlorobenzyl)sulfonyl]carbamoyl}azetidin-1-yl)-5-cyano-2-ethylnicotinate], the IC50 was found to be 0.022 µM. On the same count and under the same terms, as for `CCOC(=O)c1cc(C#N)c(N2CCC(C(=O)NS(=O)(=O)Cc3ccc(F)cc3)CC2)nc1CC` [Example 24, Ethyl 5-cyano-2-ethyl-6-(4-{[(4-fluorobenzyl)sulfonyl]carbamoyl}piperidin-1-yl)nicotinate], the figure is 0.036 µM; as for `CCOC(=O)c1cc(C#N)c(N2CCC(C(=O)NS(=O)(=O)Cc3ccc(Cl)cc3)CC2)nc1CC` [Example 25, Ethyl 6-(4-{[(4-chlorobenzyl)sulfonyl]carbamoyl}piperidin-1-yl)-5-cyano-2-ethylnicotinate], 0.04 µM. As to `CCOC(=O)c1cc(C#N)c(N2CC(C(=O)NS(=O)(=O)Cc3ccccc3F)C2)nc1C` [Example 26, Ethyl 5-cyano-6-(3-{[(2-fluorobenzyl)sulfonyl]carbamoyl}azetidin-1-yl)-2-methylnicotinate], the IC50 was found to be 0.035 µM. Same read-out and setting: in the case of `CCOC(=O)c1cc(C#N)c(N2CCC(C(=O)NS(=O)(=O)Cc3ccccc3F)CC2)nc1C` [Example 27, Ethyl 5-cyano-6-(4-{[(2-fluorobenzyl)sulfonyl]carbamoyl}piperidin-1-yl)-2-methylnicotinate] it was 0.026 µM.

Take `CCOC(=O)c1cc(C#N)c(N2CCC(C(=O)NS(=O)(=O)Cc3ccccc3)C(CCC(=O)OCc3ccccc3)C2)nc1C` (stereo not shown) [Example 28, Ethyl 6-{3-[3-(benzyloxy)-3-oxopropyl]-4-[(benzylsulfonyl)carbamoyl]piperidin-1-yl}-5-cyano-2-methylnicotinate]: the half-inhibitory concentration (IC50) stood at 0.442 µM. As to `CCOC(=O)c1cc(C#N)c(N2CCC(C(=O)NS(=O)(=O)Cc3ccc(F)cc3F)C(CCC(=O)OCc3ccccc3)C2)nc1C` (stereo not shown) [Example 29, Ethyl 6-(3-[3-(benzyloxy)-3-oxopropyl]-4-{[(2,4-difluorobenzyl)sulfonyl]carbamoyl}piperidin-1-yl)-5-cyano-2-methylnicotinate], the IC50 worked out at 0.382 µM. Take `CCOC(=O)c1cc(C#N)c(N2CCC(C(=O)NS(=O)(=O)Cc3ccccc3)C(CCC(=O)O)C2)nc1C` (stereo not shown) [Example 30, 3-{4-[(Benzylsulfonyl)carbamoyl]-1-[3-cyano-5-(ethoxycarbonyl)-6-methylpyridin-2-yl]piperidin-3-yl}propanoic Acid]: the IC50 is 0.057 µM.

Consider “Ethyl 6-(4-{[(4-chloro-2-fluorobenzyl)sulfonyl]carbamoyl}piperidin-1-yl)-5-cyano-2-ethylnicotinate [Example 19]”, for which the IC50 amounted to 0.01 µM.

Source of the values: patent publication US20080176827A1, “New Pyridine Analogues VII 543” (ASTRAZENECA AB, priority 2007, published 2008).
